Reference: ChEMBL document CHEMBL3832761, “MMV Pathogen Box Bioactivity Data” (2017)

Tests used:
Trypanosoma brucei [1] = experiment: AntiTrypanosoma brucei activity T. b. rhodesiense IC50 (uM); type: functional, organism-based
[2] = PMM CC50 (uM) Cytotoxicity; type: functional; settings: Macrophage
MRC5 = experiment: MRC5 CC50 (uM) Cytotoxicity; type: functional; settings: Homo sapiens
Trypanosoma cruzi = experiment: AntiTrypanosoma cruzi activity IC50 (uM); type: functional, organism-based
Leishmania infantum = experiment: AntiLeishmania activity L. infantum (macrophages) IC50 (uM); type: functional, organism-based
Trypanosoma brucei [3] = experiment: AntiTrypanosoma brucei activity T. b. brucei IC50 (uM); type: functional, organism-based
HepG2 [4] = experiment: Cytotoxicity data HepG2 CC20 (uM); type: functional
Plasmodium falciparum [5] = experiment: Antimalarial activity: Asexual Blood Stage Plasmodium falciparum W2 IC50 (uM); type: functional, organism-based
Plasmodium falciparum [6] = experiment: Antimalarial activity: Asexual Blood Stage Plasmodium falciparum Dd2 IC50 (uM); type: functional, organism-based
HepG2 [7] = experiment: HepG2 CC50 (uM) Cytotoxicity; type: functional; settings: Homo sapiens
Plasmodium berghei [8] = experiment: Antimalarial activity: Liver Stage Plasmodium berghei sporozoite Luciferase assay: inhibition at 10 uM (%); type: functional
Plasmodium falciparum [9] = experiment: Antimalarial activity: Asexual Blood Stage Plasmodium falciparum 3D7 IC50 (uM); type: functional, organism-based
Plasmodium berghei [10] = experiment: Antimalarial activity: Liver Stage Plasmodium berghei sporozoite Luciferase assay IC50 (uM); type: functional, organism-based
Plasmodium falciparum [11] = experiment: Antimalarial activity: Gametocytes Plasmodium falciparum NF54 Gametocytes Stage V: inhibition at 10 uM (%); type: functional

Compound	IC50 (Trypanosoma brucei [1])	IC50 (Trypanosoma cruzi)	IC50 (Leishmania infantum)	IC50 (Trypanosoma brucei [3])	IC50 (Plasmodium falciparum [5])	IC50 (Plasmodium falciparum [6])	IC50 (Plasmodium falciparum [9])	IC50 (Plasmodium berghei [10])	CC50 [2]	CC50 (MRC5)	CC20 (HepG2 [4])	CC50 (HepG2 [7])	Inhibition (Plasmodium berghei [8])	Inhibition (Plasmodium falciparum [11])
CNC(=O)c1nn(C)c2c1C(C)(C)Cc1cnc(Nc3ccc(N4CCN(C)CC4)cc3)nc1-2 [MILCICLIB]	< 130 nM	1050 nM	0.85 µM	< 0.13 µM					1 µM	1.1 µM	<0.26 µM			
CO/N=C(\C(=O)OC)c1ccccc1CO/N=C(\C)c1cccc(C(F)(F)F)c1	26200 nM	1940 nM	> 64 µM	33.6 µM			300 nM		> 64 µM	> 64 µM			100%	
CCc1nn(C)c(C(=O)NCc2ccc(Oc3ccc(C)cc3)cc2)c1Cl [TOLFENPYRAD]	20400 nM	5350 nM	45.6 µM	33 µM					48 µM	56 µM			94%	
COc1cc(C2=NCCN2)ccc1-n1cc(-c2cccc(C3=NCCN3)c2)nn1	3810 nM	> 32000 nM	> 32 µM	> 32 µM					> 32 µM	> 32 µM	>80 µM			
CC1COC(Cn2cncn2)(c2ccc(Oc3ccc(Cl)cc3)cc2Cl)O1 (stereo unspecified) [DIFENOCONAZOLE]	26200 nM	10 nM	44.7 µM	32.5 µM					> 64 µM	30.9 µM			85%	
CO[C@@H]1CN(c2ccc(C#CC3(O)CN4CCC3CC4)c(Cc3ccccc3)n2)C[C@H]1O (stereo partly specified)	4000 nM	< 130 nM	17.3 µM	16.1 µM					> 32 µM	> 32 µM	38.4 µM			
CC(C)(C)C(O)C(Oc1ccc(-c2ccccc2)cc1)n1cncn1 (stereo unspecified) [BITERTANOL]	28000 nM	60 nM	> 64 µM	32.9 µM					> 64 µM	> 64 µM			46%	
c1csc(-c2cnc3sc(NCC4CCOCC4)nn23)c1						1110 nM	1370 nM	> 10000 nM			30 µM	> 10 µM	58%	18%
CCCCN(CCCC)c1c(C#N)cc(S(=O)(=O)Nc2ccccc2)cc1C#N	240 nM	820 nM	13.6 µM	0.26 µM					16 µM	3.9 µM	11.9 µM			
COc1cc(C2=NCCN2)cc2cc(-c3ccc(C4=NCCN4)cc3)oc12	780 nM	13300 nM	> 32 µM	14.5 µM					> 32 µM	> 32 µM	14.3 µM			
Cc1nn(C)c(C)c1NS(=O)(=O)c1c(Cl)cc(-c2ccnc(N3CCNCC3)c2)cc1Cl	< 130 nM	850 nM	1.01 µM	< 0.13 µM					1 µM	2 µM	0.05 µM			
C[C@H](C(N)=O)N1CCCC[C@H]1c1ccc(OCc2cccc(F)c2)cc1						> 2000 nM	> 2000 nM	1360 nM			>80 µM	> 10 µM	95%	0%
COc1cc(C2=NCCN2)ccc1-c1cn(-c2cccc(C3=NCCN3)c2)nn1	3720 nM	25000 nM	> 32 µM	> 32 µM					> 32 µM	> 32 µM	22.9 µM			
NS(=O)(=O)c1cncc(-c2ccc3nccc(-c4cn[nH]c4)c3n2)c1					730 nM	630 nM	600 nM	2170 nM			0.49 µM		96%	70%
Nc1ccc(C(=O)Nc2ccc(-c3nc4ccccc4o3)cc2)cc1						> 2000 nM	1550 nM	> 10000 nM			18.2 µM	> 10 µM	89%	0%
C[C@]1(O)C[C@@H](c2nc(-c3ccc4ccc(-c5ccccc5)nc4c3)c3c(N)nccn32)C1 [LINSITINIB]						> 2000 nM	> 2000 nM	360 nM			4.67 µM	> 10 µM	98%	16%
CO[C@@H](C(=O)N1Cc2[nH]nc(NC(=O)c3ccc(N4CCN(C)CC4)cc3)c2C1)c1ccccc1 [DANUSERTIB]	370 nM	6480 nM	4.06 µM	1.02 µM					4 µM	2.7 µM	4.83 µM			
O=C(NC1CC1)c1ccc(N2CCOc3ccc(Cl)cc32)s1							1030 nM	3480 nM				> 10 µM	98%	18%

Now from value to compound, other results behind:

IC50 (Trypanosoma brucei [1])	IC50 (Trypanosoma cruzi)	IC50 (Leishmania infantum)	IC50 (Trypanosoma brucei [3])	IC50 (Plasmodium falciparum [5])	IC50 (Plasmodium falciparum [6])	IC50 (Plasmodium falciparum [9])	IC50 (Plasmodium berghei [10])	Compound	CC50 [2]	CC50 (MRC5)	CC20 (HepG2 [4])	CC50 (HepG2 [7])	Inhibition (Plasmodium berghei [8])	Inhibition (Plasmodium falciparum [11])
				1360 nM	1530 nM	1630 nM	> 10000 nM	Clc1cccc(C(c2ccc(CN3CCNCC3)cc2)n2ccnc2)c1 (stereo unspecified)			15.2 µM	> 10 µM	83%	36%
< 130 nM	990 nM	> 32 µM	< 0.13 µM					CCc1ccccc1-n1c(C)cn2c3c(=O)n(C(C(=O)OC)C(C)C)c(=O)n(C)c3nc12 (stereo unspecified)	> 32 µM	> 32 µM	44.3 µM			
				1330 nM	1260 nM	1160 nM	200 nM	O=C1N(Cc2cc3ccccc3s2)CC2CN(Cc3ccccc3)CCN12 (stereo unspecified)			26.4 µM	> 10 µM	100%	53%
				1140 nM	3100 nM	960 nM	9150 nM	CC(C)C(NC(=O)Cc1cccc2ccccc12)C(=O)Nc1cccc(C#N)c1 (stereo unspecified)			14 µM	> 10 µM	76%	5%
1630 nM	> 32000 nM	> 32 µM	> 32 µM					COc1ccc(C2=NCCN2)cc1-c1cn(-c2cccc(C3=NCCN3)c2)nn1	> 32 µM	> 32 µM	>80 µM			
				790 nM	610 nM	420 nM	> 10000 nM	CCOc1ccccc1NC(C)C(=O)Nc1cc(C(F)(F)F)ccc1N1CCOCC1 (stereo unspecified)			29.8 µM	> 10 µM	56%	39%
					1470 nM	> 2000 nM	930 nM	COc1ccc(CN2CCOc3ccc(C(C)(O)CN(C)C)cc3C2)cc1C (stereo unspecified)			17.4 µM	> 10 µM	64%	7%
				640 nM	600 nM	480 nM	9100 nM	Cc1ccc(Oc2ccc(NC(=O)CNc3ccccc3N3CCCC3=O)cc2)cc1			17.5 µM	9.8 µM	89%	0%
							1770 nM	C[C@H](C(N)=O)N1CCCC[C@@H]1c1ccc(OCc2cccc(F)c2)cc1			21.8 µM	> 10 µM	99%	5%
970 nM	4480 nM	4.06 µM	0.99 µM					c1ccc(Oc2ccc(-c3cc(N4CCNCC4)[nH]n3)cc2)cc1	4 µM	16 µM	6.43 µM			
430 nM	4040 nM	4.06 µM	0.98 µM					CC1=Nc2ccc(Cl)cc2C(O)(c2ccc(C)cc2)N1CCN1CCCCC1 (stereo unspecified)	4 µM	16 µM	10 µM			
3000 nM	> 32000 nM	> 32 µM	5.63 µM					c1cc(C2=NCCN2)cc(-c2cc(-c3ccc(C4=NCCN4)cc3)no2)c1	> 32 µM	> 32 µM	4.51 µM			
3110 nM	17100 nM	10.1 µM	3.78 µM					CC1=Nc2ccc(Cl)cc2C(c2ccccc2)N1CCNC(=O)CN(C)C (stereo unspecified)	> 32 µM	16 µM	16.4 µM			
1080 nM	4040 nM	2.54 µM	4.06 µM					N=C(N)c1ccc(-c2cc(-c3ccccc3)on2)cc1	4 µM	12.2 µM	2.64 µM			
230 nM	270 nM	1.41 µM	0.15 µM					O=C(Nc1ccc2c(c1)B(O)OC2)c1ccccc1C(F)(F)F	16 µM	> 32 µM	0.41 µM			
3770 nM	16400 nM	> 32 µM	7.58 µM					c1ccc(Oc2ccc(-c3cc(C4CCOCC4)[nH]n3)cc2)cc1	> 32 µM	22.8 µM	10.8 µM			
200 nM	660 nM	10.2 µM	0.6 µM					N=C(N)Nc1ccc(-c2ccc(-c3ccc(N=C(N)N)c(Cl)c3)o2)cc1Cl	16 µM	15.4 µM	13.5 µM			
230 nM	290 nM	1.01 µM	1.03 µM					N=C(N)Nc1ccc(-c2ccc(-c3ccc(NC(=N)N)cc3Cl)o2)c(Cl)c1	1 µM	11.6 µM	6.75 µM			
					> 2000 nM	1880 nM	1390 nM	Cc1cc(C(=O)Nc2cnn(Cc3ccc(Cl)cc3Cl)c2)no1			30.6 µM	> 10 µM	98%	11%
